PubChem BioAssay (NCI)
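Interpolation was linear, between the two tested concentrations surrounding the appropriate level; five concentrations were tested over 48 hours in 96-well plates. The concentration for 50% growth inhibition is given as GI50. TGI: concentration producing complete growth inhibition.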

Columns and labels:
Test in all cases: DTP human tumour cell line panel, 48 h
[1] = test system: LOX IMVI melanoma
[2] = test system: SNB-75 CNS
[3] = test system: SW-620 colon
[4] = test system: SR leukemia
[5] = test system: RXF 393 renal
[6] = test system: SK-OV-3 ovarian
[7] = test system: IGROV1 ovarian
[8] = test system: MALME-3M melanoma
[9] = test system: CCRF-CEM leukemia
[10] = test system: NCI-H460 lung
[11] = test system: NCI-H23 lung
[12] = test system: UACC-62 melanoma
[13] = test system: SK-MEL-5 melanoma
[14] = test system: SF-268 CNS
[15] = test system: BT-549 breast
[16] = test system: MCF7 breast
[17] = test system: SK-MEL-28 melanoma
[18] = test system: OVCAR-8 ovarian
[19] = test system: HCC-2998 colon
[20] = test system: KM12 colon
[21] = test system: M14 melanoma
[22] = test system: HCT-116 colon
[23] = test system: OVCAR-4 ovarian
[24] = test system: HL-60(TB) leukemia
[25] = test system: NCI-H522 lung
[26] = test system: TK-10 renal
[27] = test system: SN12C renal
[28] = test system: OVCAR-5 ovarian
[29] = test system: MOLT-4 leukemia
[30] = test system: SF-295 CNS
[31] = test system: DU-145 prostate
[32] = test system: EKVX NSCLC
[33] = test system: SF-539 CNS
[34] = test system: HCT-15 colon
[35] = test system: PC-3 prostate
[36] = test system: COLO 205 colon
[37] = test system: UO-31 renal
[38] = test system: SNB-19 CNS
[39] = test system: MDA-MB-435
[40] = test system: NCI/ADR-RES ovarian
[41] = test system: OVCAR-3 ovarian
[42] = test system: CAKI-1 renal
[43] = test system: A498 renal
[44] = test system: ACHN renal
[45] = test system: A549 NSCLC
[46] = test system: U251 CNS
[47] = test system: HOP-62 NSCLC
[48] = test system: K-562 leukemia
[49] = test system: T-47D breast
[50] = test system: HOP-92 NSCLC
[51] = test system: NCI-H226 lung
[52] = test system: SK-MEL-2 melanoma
[53] = test system: 786-0 renal
[54] = test system: RPMI-8226 leukemia
[55] = test system: HT29 colon
[56] = test system: HS 578T breast
[57] = test system: MDA-MB-231 breast
[58] = test system: UACC-257 melanoma

SMILES: Fc1ccc(C2CC(c3cccc(Nc4ccncc4)c3)=NN2c2cc(Cl)cc(Cl)c2)cc1 (stereo unspecified)
- GI50 [1]: 1600 nM
- TGI [1]: 2940 nM
- GI50 [2]: 1310 nM
- TGI [2]: 2910 nM
- GI50 [3]: 1750 nM
- TGI [3]: 3.29 µM
- GI50 [4]: 2060 nM
- TGI [4]: 4.92 µM
- GI50 [5]: 1590 nM
- TGI [5]: 2990 nM
- GI50 [6]: 1790 nM
- TGI [6]: 3.54 µM
- GI50 [7]: 1740 nM
- TGI [7]: 3.3 µM
- GI50 [8]: 1720 nM
- TGI [8]: 3.41 µM
- GI50 [9]: 2900 nM
- TGI [9]: > 100 µM
- GI50 [10]: 1870 nM
- TGI [10]: 3.55 µM
- GI50 [11]: 1700 nM
- TGI [11]: 3.19 µM
- GI50 [12]: 1740 nM
- TGI [12]: 3.27 µM
- GI50 [13]: 1810 nM
- TGI [13]: 3340 nM
- GI50 [14]: 1720 nM
- TGI [14]: 3.4 µM
- GI50 [15]: 1880 nM
- TGI [15]: 3.63 µM
- GI50 [16]: 1950 nM
- TGI [16]: 4.37 µM
- GI50 [17]: 1740 nM
- TGI [17]: 3.31 µM
- GI50 [18]: 2200 nM
- TGI [18]: 4.77 µM
- GI50 [19]: 1600 nM
- TGI [19]: 2960 nM
- GI50 [20]: 1760 nM
- TGI [20]: 3.26 µM
- GI50 [21]: 1740 nM
- TGI [21]: 3.28 µM
- GI50 [22]: 1660 nM
- TGI [22]: 3.15 µM
- GI50 [23]: 1.77 µM
- TGI [23]: 3.23 µM
- GI50 [24]: 2250 nM
- TGI [24]: 5.14 µM
- GI50 [25]: 1880 nM
- TGI [25]: 3.9 µM
- GI50 [26]: 1.94 µM
- TGI [26]: 3.84 µM
- GI50 [27]: 1690 nM
- TGI [27]: 3.16 µM
- GI50 [28]: 1.73 µM
- TGI [28]: 3.16 µM
- GI50 [29]: 2230 nM
- TGI [29]: 5.23 µM
- GI50 [30]: 1770 nM
- TGI [30]: 3.21 µM
- GI50 [31]: 1850 nM
- TGI [31]: 3.32 µM
- GI50 [32]: 1710 nM
- TGI [32]: 3.38 µM
- GI50 [33]: 1640 nM
- TGI [33]: 3.11 µM
- GI50 [34]: 1770 nM
- TGI [34]: 3.47 µM
- GI50 [35]: 1550 nM
- TGI [35]: 3.14 µM
- GI50 [36]: 2210 nM
- TGI [36]: 4.81 µM
- GI50 [37]: 1360 nM
- TGI [37]: 2660 nM
- GI50 [38]: 1740 nM
- TGI [38]: 3.32 µM
- GI50 [39]: 1680 nM
- TGI [39]: 3.13 µM
- GI50 [40]: 1710 nM
- TGI [40]: 3.34 µM
- GI50 [41]: 1800 nM
- TGI [41]: 3.32 µM
- GI50 [42]: 1540 nM
- TGI [42]: 2920 nM
- GI50 [43]: 1170 nM
- TGI [43]: 2600 nM
- GI50 [44]: 1660 nM
- TGI [44]: 3.02 µM

SMILES: O=C(Nc1ncc(Cc2ccccc2)s1)c1ccc2c(c1)OCCCO2
- GI50 [45]: 725 nM
- TGI [45]: > 100 µM
- GI50 [46]: 631 nM
- TGI [46]: > 100 µM
- GI50 [1]: 323 nM
- TGI [1]: > 100000 nM
- GI50 [47]: 730 nM
- TGI [47]: > 100 µM
- GI50 [2]: 613 nM
- TGI [2]: > 29300 nM
- GI50 [3]: 444 nM
- TGI [3]: > 100 µM
- GI50 [4]: 299 nM
- TGI [4]: > 100 µM
- GI50 [5]: 1780 nM
- TGI [5]: > 100000 nM
- GI50 [6]: 3170 nM
- TGI [6]: > 100 µM
- GI50 [7]: 880 nM
- TGI [7]: > 100 µM
- GI50 [48]: 254 nM
- TGI [48]: > 100 µM
- GI50 [49]: 541 nM
- TGI [49]: > 100 µM
- GI50 [8]: 882 nM
- TGI [8]: > 100 µM
- GI50 [9]: 524 nM
- TGI [9]: > 100 µM
- GI50 [10]: 407 nM
- TGI [10]: > 100 µM
- GI50 [11]: 2430 nM
- TGI [11]: > 100 µM
- GI50 [50]: > 24 µM
- TGI [50]: > 100 µM
- GI50 [12]: 302 nM
- TGI [12]: > 100 µM
- GI50 [13]: 424 nM
- TGI [13]: 1960 nM
- GI50 [14]: 1920 nM
- TGI [14]: > 100 µM
- GI50 [15]: 1930 nM
- TGI [15]: > 100 µM
- GI50 [16]: 374 nM
- TGI [16]: > 100 µM
- GI50 [17]: 838 nM
- TGI [17]: > 100 µM
- GI50 [18]: 2010 nM
- TGI [18]: > 100 µM
- GI50 [19]: 885 nM
- TGI [19]: > 100000 nM
- GI50 [20]: 372 nM
- TGI [20]: > 100 µM
- GI50 [21]: 374 nM
- TGI [21]: > 100 µM
- GI50 [51]: 1440 nM
- TGI [51]: > 100 µM
- GI50 [22]: 468 nM
- TGI [22]: > 100 µM
- GI50 [23]: 5.22 µM
- TGI [23]: > 100 µM
- GI50 [24]: 330 nM
- TGI [24]: > 51.6 µM
- GI50 [25]: 1030 nM
- TGI [25]: > 100 µM
- GI50 [26]: 6.17 µM
- TGI [26]: > 100 µM
- GI50 [27]: 2120 nM
- TGI [27]: > 100 µM
- GI50 [52]: 1360 nM
- TGI [52]: > 100 µM
- GI50 [28]: 11.5 µM
- TGI [28]: > 100 µM
- GI50 [53]: 2440 nM
- TGI [53]: > 100 µM
- GI50 [54]: 428 nM
- GI50 [29]: 478 nM
- TGI [29]: > 100 µM
- GI50 [55]: 361 nM
- TGI [55]: > 100 µM
- GI50 [30]: 396 nM
- TGI [30]: > 100 µM
- GI50 [31]: 2300 nM
- TGI [31]: > 100 µM
- GI50 [32]: 1050 nM
- TGI [32]: > 100 µM
- GI50 [56]: 1140 nM
- TGI [56]: > 100 µM
- GI50 [33]: 490 nM
- TGI [33]: 4.27 µM
- GI50 [57]: 2770 nM
- TGI [57]: > 100 µM
- GI50 [34]: 376 nM
- TGI [34]: > 100 µM
- GI50 [35]: 927 nM
- TGI [35]: > 100 µM
- GI50 [58]: 1610 nM
- TGI [58]: > 100 µM
- GI50 [36]: 579 nM
- TGI [36]: > 100 µM
- GI50 [37]: 1420 nM
- TGI [37]: > 100000 nM
- GI50 [38]: 1000 nM
- TGI [38]: > 100 µM
- GI50 [40]: 547 nM
- TGI [40]: > 100 µM
- GI50 [41]: 614 nM
- TGI [41]: > 100 µM
- GI50 [42]: 526 nM
- TGI [42]: > 100000 nM
- GI50 [43]: 282 nM
- TGI [43]: 3030 nM
- GI50 [44]: 644 nM
- TGI [44]: > 100 µM
